Results as given in ChEMBL document CHEMBL5385959, “Trifluoroacetic acid-mediated synthesis of xanthene constructs and their extensive anti-tuberculosis evaluation” (RSC Med Chem, 2024).
Values after ≈ are worked out from the molar mass of the structure shown. Active and inactive are the calls of the source. No cut-off for these calls is given here.

Legend:
[1] = test system: Pseudomonas aeruginosa; experiment: Antibacterial activity against Pseudomonas aeruginosa assessed as reduction in bacterial growth incubated for 24 hrs by broth dilution method; format: functional
[2] = test system: Mycobacterium tuberculosis; experiment: Synergistic antibacterial activity against Mycobacterium tuberculosis H37Rv assessed as log reduction in CFU measured for 4 days in presence of isoniazid by time kill assay; format: functional; settings: time 4 day
[3] = test system: Mycobacterium tuberculosis; experiment: Bactericidal activity Mycobacterium tuberculosis H37Rv assessed as reduction in bacterial growth incubated for 2 days by time kill assay; format: functional; settings: 48 h, time 2 day
[4] = test system: Mycobacterium tuberculosis; experiment: Bactericidal activity Mycobacterium tuberculosis H37Rv at 4 times MIC incubated for 7 days by time kill assay; format: functional, organism-based; settings: time 7.0 day
[5] = test system: Mycobacterium tuberculosis; experiment: Bactericidal activity Mycobacterium tuberculosis assessed as reduction in bacterial growth incubated for 28 days by broth microdilution method; format: functional; settings: 672 h, time 28 day
[6] = test system: Mycobacterium tuberculosis; experiment: Bactericidal activity Mycobacterium tuberculosis H37Rv incubated for 2 days by time kill assay; format: functional, organism-based; settings: time 2.0 day
[7] = test system: Mycobacterium tuberculosis; experiment: Antibacterial activity against Mycobacterium tuberculosis H37Rv assessed as reduction in bacterial growth by broth microdilution method; format: functional
[8] = test system: Mycobacterium tuberculosis; experiment: Synergistic antibacterial activity against Mycobacterium tuberculosis H37Rv assessed as log reduction in CFU measured for 2 days in presence of isoniazid by time kill assay; format: functional; settings: time 2 day
[9] = test system: Mycobacterium tuberculosis; experiment: Antibacterial activity against Mycobacterium tuberculosis H37Rv assessed as reduction in bacterial growth incubated for 14 days by CLSI protocol based method; format: functional; settings: 336 h, time 14 day
[10] = test system: Mycobacterium tuberculosis; experiment: Synergistic antibacterial activity against Mycobacterium tuberculosis H37Rv assessed as rifampicin MIC by broth microdilution method; format: functional
[11] = Cytotoxicity against mouse RAW 264 cells assessed as reduction in cell viability at 150 uM incubated for 48 hrs by MTT assay; format: functional
[12] = test system: Mycobacterium tuberculosis; experiment: Synergistic antibacterial activity against Mycobacterium tuberculosis H37Rv assessed as reduction in microbial growth in presence of ethambutol by broth microdilution method; format: functional
[13] = test system: Mycobacterium tuberculosis; experiment: Synergistic antibacterial activity against Mycobacterium tuberculosis H37Rv assessed as reduction in microbial growth in presence of rifampicin by broth microdilution method; format: functional
[14] = test system: Mycobacterium tuberculosis; experiment: Bactericidal activity Mycobacterium tuberculosis H37Rv assessed as log reduction in CFU at 2 times MIC incubated for 2 days by time kill assay; format: functional; settings: time 2 day
[15] = test system: Mycobacterium tuberculosis; experiment: Synergistic antibacterial activity against Mycobacterium tuberculosis H37Rv assessed as ethambutol MIC by broth microdilution method; format: functional
[16] = test system: Mycobacterium tuberculosis; experiment: Bactericidal activity Mycobacterium tuberculosis H37Rv incubated for 15 days by time kill assay; format: functional, organism-based; settings: time 15.0 day
[17] = test system: Bacillus subtilis; experiment: Antibacterial activity against Bacillus subtilis assessed as reduction in bacterial growth incubated for 24 hrs by broth dilution method; format: functional
[18] = test system: Mycobacterium tuberculosis; experiment: Bactericidal activity Mycobacterium tuberculosis H37Rv assessed as log reduction in CFU at 2 times MIC incubated for 5 to 10 days by time kill assay; format: functional, organism-based; settings: time 5-10 day
[19] = test system: A549; experiment: Cytotoxicity against human A549 cells assessed as reduction in cell viability at 200 uM incubated for 48 hrs by MTT assay; format: functional
[20] = test system: Mycobacterium tuberculosis; experiment: Antibacterial activity against Mycobacterium tuberculosis H37Ra assessed as reduction in bacterial growth incubated for 14 days by CLSI protocol based method; format: functional; settings: 336 h, time 14 day
[21] = test system: Mycobacterium tuberculosis; experiment: Synergistic antibacterial activity against Mycobacterium tuberculosis H37Rv assessed as reduction in microbial growth in presence of isoniazid by broth microdilution method; format: functional
[22] = test system: Mycobacterium tuberculosis; experiment: Synergistic antibacterial activity against Mycobacterium tuberculosis H37Rv assessed as isoniazid MIC by broth microdilution method; format: functional
[23] = test system: HEK293; experiment: Cytotoxicity against HEK293 cells assessed as reduction in cell viability at 100 uM incubated for 48 hrs by MTT assay; format: toxicity, cell-based; settings: human, hek293, 48 h
[24] = test system: Escherichia coli; experiment: Antibacterial activity against Escherichia coli assessed as reduction in bacterial growth incubated for 24 hrs by broth dilution method; format: functional
[25] = test system: Mycobacterium tuberculosis; experiment: Antibacterial activity against GFP-tagged Mycobacterium tuberculosis H37Rv assessed as reduction in GFP expression at half times MIC incubated for 7 days by confocal microscopic analysis; format: functional, organism-based; settings: time 7.0 day

Q: What does the source list for `CC1(C)CC(=O)C2=C(C1)OC1=C(C(=O)CC(C)(C)C1)C2c1ccccc1`?
A: MIC [1]: > 128 µg/mL; Activity [2]: 1 log10CFU; MIC [3]: 8 µg/mL (≈ 22.8 µM); Activity [4]: Active; MBC [5]: 8 µg/mL (≈ 22.8 µM); Activity [6]: Active; MIC [7]: 8 µg/mL (≈ 22.8 µM); Activity [8]: 2 log10CFU; MIC [9]: 8 µg/mL (≈ 22.8 µM); MIC [10]: 0.009 µg/mL; Activity [11]: >75%; MIC [12]: 0.25 µg/mL; MIC [13]: 0.009 µg/mL; Activity [14]: 3 log10CFU; MIC [15]: 0.312 µg/mL; Activity [16]: inactive; MIC [17]: > 128 µg/mL; Activity [18]: Active; Activity [19]: >75%; MIC [20]: 8 µg/mL (≈ 22.8 µM); MIC [21]: 0.078 µg/mL; MIC [22]: 0.078 µg/mL; Activity [23]: > 75%; MIC [24]: > 128 µg/mL; Activity [25]: Active
